Our source for the ED50 and LD50 values is US4738977A, “2-pyridylacetic acid derivatives, pharmaceutical composition containing the same and their use in treating ulcers” (Suntory Limited, priority 1985, dated 1988).

Structures are written as SMILES.

One series has as its system gastric acid secretion. Nature of the series: Action on Gastric Acid Secretion (Shay Rat, pylorus ligation). Type of series: in vivo, Sprague-Dawley strain male rats. The note with it: intraduodenal immediately after pylorus ligation, 4 h gastric juice. As for the experimental part: (§1) For the pharmocological examination of the compounds of the present invention, the following tests were carried out to confirm the effect of inhibiting gastric acid secretion and the protective effect of gastric mucosa. For the toxicity, the test compound was orally administered to six mice of one group to determine the toxicity (LD50) thereof.
1. Action on Gastric Acid Secretion (Shay Rat)
Sprague-Dawley strain male rats weighing 200-240 g were used after being starved for 24 hours (water was given ad libitum). Under ether anesthesia, the abdomen was cut and, after ligation of the pylorus part, then closed, and the rat was starved of both food and water. Four hours later the stomach was removed under ether anesthesia and the gastric juice was collected. The gastric juice collected was centrifuged at 3000 rpm for 10 minutes, the volume of the supernatant was measured, and the acidity was determined by titrating 1 ml of the gastric juice with 0.1 N sodium hydroxide solution to pH 7.0. Further, from the amount of gastric juice and the acidity, the acid output (μEg/4h) was calculated; the percentage of inhibition was determined from the following formula, and the percentage of inhibition versus dose (mg/kg) was then plotted on a semi-logarithmic graph to determine the ED50 value. Each test drug was suspended in physiological saline with a few drops of Tween 80 (available from Nakarai Chemicals Ltd.,) and administered into the duodenum at a proportion of 0.2 ml/100 g-body weight immediately after pylorus ligation. [formula]

Series [1] is described as follows: Action on Hydrochloric Acid Plus Ethanol Induced Ulcer. The note with it: rat, oral 30 minutes before HCl-ethanol. Type of series: in vivo, Sprague-Dawley strain male rats. The protocol: 2. Action on Hydrochloric Acid Plus Ethanol Induced Ulcer
Sprague-Dawley strain male rats weighing 200-240 g were used after starving for 24 hours. To each rat, a 60% ethanolic solution containing 150 mM of hydrochloric acid was administered orally at a volume of 0.5 ml/100 g-body weight, and the stomach was removed under ether anesthesia 1 hour later. Into the stomach, 10 ml of a 2% formalin solution was injected, and further the stomach was then immersed in a 2% formalin solution for 15 minutes to fix the inner and outer wall of the stomach. The stomach was cut open along the greater curvature, and the length of the damage generated at the glandular portion of the stomach was measured, and the sum of the lengths of the damages of gastric mucosa per one rat was defined as the lesion index (mm), which was compared with a control group to calculate the percentage of inhibition according to the formula shown below, and then the percentage of inhibition versus dose (mg/kg) was plotted on a semi-logarithmic graph to determine the ED50 value. Each test drug was suspended in physiological saline a few drops of Tween 80 and administered orally 30 minutes before administration of the hydrochloric acid ethanolic solution. [formula]

The nature of another series: Toxicity (LD50) in rat. The note with it: in vivo, oral.
Another series is described as follows: Anti Stress Ulcer. Type of series: in vivo, Sprague-Dawley-strain male rats. The note with it: rat, oral 30 minutes before water immersion stress at 23° C., 5 hours; read-out: Action on anti-stress ulcer (ED50). As for the experimental part:
Sprague-Dawley-strain male rats weighing about 240-260 g were starved for 24 hours, and, 30 minutes after oral administration of the test drug, the rat was placed in a stress cage and stress was loaded by immersing the rat into a water tank maintained at 23° C. to the xiphisternum of the chest. Five hours later, the stomach was removed under ether anesthesia, the same treatment as in the case of aspirin ulcer was applied, and the sum of the lengths (mm) of the mucosa damage generated at the glandular portion of the stomach was defined as the lesion index. The ED50 value was calculated as described before.

The nature of series [2]: Anti-Duodenal Ulcer Action. Type of series: in vivo, Sprague-Dawley-strain male rats. The note with it: rat, indomethacin plus histamine 2HCl. As for the experimental part: 6. Anti-Duodenal Ulcer Action
Sprague-Dawley-strain male rats weighing 200-220 g were starved for 24 hours, and indomethacin (suspended in saline with Tween 80) and histamine 2HCl (dissolved in 10% gelatin solution) were administered following the time schedule shown below. Then, under ether anesthesis, stomach and the duodenal part were removed and 2% formalin solution was injected thereinto. Further, they were immersed in 2% formalin solution for about 15 minutes, and then cut open along the greater curvature to the duodenal part, and the number and area (length in the case of linear ulcer) of the mucosa damages generated at the Corpus, Antrum and Duodenum respectively were measured under stereoscopic microscope (×10), and the sum of the area (mm^2) per one rat was defined as lesion index. The ED50 value was calculated as described before. [drawing 32]

Another series can be described thus: Toxicity (LD50) in mouse. The note with it: in vivo, oral, six mice of one group. As for the experimental part: as §1
Series [3] can be described thus: Anti-Aspirin Ulcer Action. Type of series: in vivo, Sprague-Dawley-strain male rats. The note with it: rat, into the duodenum, aspirin 150 mg/kg oral, 5 hours. As for the experimental part:
3. Anti-Aspirin Ulcer Action
Sprague-Dawley-strain male rats weighing about 220 g were starved for 24 hours, and with pylorus being ligated under ether anesthesia, the test drug was administered into the duodenum. After recovery from ether anesthesia, 150 mg/kg of aspirin (suspended in 1% CMC) was orally administered. Five hours later, the stomach was removed under ether anesthesia, 10 ml of 2% formalin solution was injected into the stomach, and the stomach was then immersed in a 2% formalin solution for about 15 minutes. The stomach was then cut open along the greater curvature and the length of the damage generated at the glandular portion of the stomach was measured under dissecting microscope (×10) and the sum of the lengths per one rat (mm) was defined as the lesion index. The ED50 value was calculated as described before.

Series [4] is described as follows: Anti-Indomethacin Ulcer Action. Type of series: in vivo, Sprague-Dawley-strain male rats. The note with it: rat, 30 minutes before indomethacin 30 mg/kg s.c., 5 hours. As for the experimental part: 4. Anti-Indomethacin Ulcer Action
Sprague-Dawley-strain male rats weighing about 200-220 g were starved for 24 hours, and 30 mg/kg of indomethacin (suspended in 1% CMC) was administered subcutaneously. After five hours, the stomach was removed under ether anesthesia, and subsequently the same treatment as in the case of an aspirin ulcer was carried out and the sum of the length (mm) of the damage produced at the glandular portion of the stomach per one rat was defined as lesion index. The test drug was administered 30 minutes before administration of indomethacin. The ED50 value was calculated as described before.

Compound `CCOC(=O)C(C(=S)NC1CCCCC1)c1ccccn1` (stereo not drawn) [Example 4, Ethyl 2-cyclohexylthiocarbamoyl-2-(2-pyridyl)acetate] had an ED50 in the series on gastric acid secretion of 15.5 mg/kg.
On to `CC(C)=CCC/C(C)=C/COC(=O)C(C(=S)Nc1ccccc1)c1ccccn1` (stereo not drawn) [Example 14, Geranyl 2-phenylthiocarbamoyl-2-(2-pyridyl)acetate], for which the ED50 came to 3.7 mg/kg in series [1] and 36 mg/kg with gastric acid secretion.
For the compound `CNC(=S)C(C(=O)OCc1ccccc1)c1ccccn1` (stereo not drawn) [Example 8, Benzyl 2-methylthiocarbamoyl-2-(2-pyridyl)acetate], the ED50 in the series on gastric acid secretion came to 12.3 mg/kg.
Take `CNC(=S)C(C(=O)OCC=C(C)C)c1ccccn1` (stereo not drawn) [Example 9, Prenyl 2-methylthiocarbamoyl-2-(2-pyridyl)acetate]: the ED50 was 1.1 mg/kg in series [1] and 3.5 mg/kg in the series on gastric acid secretion.
For the compound `CC(C)=CCC/C(C)=C/COC(=O)C(C(N)=S)c1ccccn1` (stereo not drawn) [Example 17, geranyl 2-thiocarbamoyl-2-(2-pyridyl)acetate], the values for the LD50 in “Toxicity (LD50) in rat” and in “Toxicity (LD50) in mouse” were over 2860 mg/kg and over 2000 mg/kg, respectively. Moreover, the ED50 in “Anti Stress Ulcer” is 4.2 mg/kg; in series [2], 1 mg/kg; in series [3] it was 1 mg/kg; in series [1], 2.8 mg/kg; with gastric acid secretion, 5.3 mg/kg.
Consider `CCOC(=O)C(C(=S)NCCCO)c1ccccn1` (stereo not drawn) [Example 20, Ethyl 2-(3-hydroxypropyl)thiocarbamoyl-2(2-pyridyl)acetate], for which the ED50 in series [1] is 2.3 mg/kg.
In the series with gastric acid secretion, `C=CCNC(=S)C(C(=O)OCC)c1ccccn1` (stereo not drawn) [Example 3, Ethyl 2-allylthiocarbamoyl-2-(2-pyridyl)acetate] returned a 50% effective dose (ED50) of 3.8 mg/kg.
In the case of `CCOC(=O)C(C(=S)NCc1ccccn1)c1ccccn1` (stereo not drawn) [Example 24, Ethyl 2-(2-pyridyl)methylthiocarbamoyl-2(2-pyridyl)acetate], the 50% effect level in the series with gastric acid secretion (ED50) was put at a dose of 6.4 mg/kg.
Same read-out and setting: the same measure for `CCOC(=O)C(C(=S)NC)c1ccccn1` (stereo not drawn) [Example 1, ethyl 2-methylthiocarbamoyl-2-(2-pyridyl)acetate]: 2.4 mg/kg.
The compound `CCOC(=O)C(C(=S)Nc1ccccc1)c1ccccn1` (stereo not drawn) [Example 6, Ethyl 2-phenylthiocarbamoyl-2-(2-pyridyl)acetate] came in with a median lethal dose (LD50) in “Toxicity (LD50) in mouse” of over 1300 mg/kg. In addition, the values for the ED50 (in series [1]; in the series with gastric acid secretion) were 3.4 mg/kg and 9.3 mg/kg, respectively.
Take `CNC(=S)C(C(=O)OC/C=C(\C)CC/C=C(\C)CCC=C(C)C)c1ccccn1` (stereo not drawn) [Example 15, Farnesyl 2-methylthiocarbamoyl-2-(2-pyridyl)acetate]: the ED50 in series [1] turned out to be 0.3 mg/kg; in the series with gastric acid secretion, 5.6 mg/kg.
Taken in the same sequence, the figures for `CCNC(=S)C(C(=O)OCC)c1ccccn1` (stereo not drawn) [Example 2, Ethyl 2-ethylthiocarbamoyl-2-(2-pyridyl)acetate] were 6.8 mg/kg and 4 mg/kg.
In the case of `CNC(=S)C(C(=O)OC/C=C(\C)CCC=C(C)C)c1ccccn1` (stereo not drawn) [Example 12, Geranyl 2-methylthiocarbamoyl-2-(2-pyridyl)acetate], the ED50 in “Anti Stress Ulcer” was 5.3 mg/kg; in series [2], 0.6 mg/kg; in series [4], 0.7 mg/kg; in series [3], 0.8 mg/kg; in series [1] it was 1.4 mg/kg; with gastric acid secretion it was 5 mg/kg. This compound also had an LD50 in “Toxicity (LD50) in mouse” of over 1300 mg/kg.
Regarding `CCCNC(=S)C(C(=O)OCC)c1ccccn1` (stereo not drawn) [Example 19, Ethyl 2-propylthiocarbamoyl-2-(2-pyridyl)acetate], the ED50 in the series with gastric acid secretion was 3.8 mg/kg.
In the case of `CC(C)=CCOC(=O)C(C(N)=S)c1ccccn1` (stereo not drawn) [Example 18, Prenyl 2-thiocarbamoyl-2-(2-pyridyl)acetate], the ED50 in series [1] was 4.5 mg/kg; with gastric acid secretion, 7.8 mg/kg.
Consider `C=CCNC(=S)C(C(=O)OCC=C(C)C)c1ccccn1` (stereo not drawn) [Example 10, Prenyl 2-allylthiocarbamoyl-2-(2-pyridyl)acetate], for which the ED50 stood at 7.7 mg/kg in series [1] and 4.4 mg/kg in the series with gastric acid secretion.
